In patent publication US9006451B1, “2-anilinonicotinyl based chalcones useful as potential anticancer agents and process for preparation thereof” (Council of Scientific and Industrial Research, priority 2013, dated 2015):
Where two headings read alike, the source gives them in different places.

How the values were obtained:
Format in all cases: cell-based
MCF7 = assay: NCI 60 human tumor cell line screen (SRB): MCF7
Protocol: (§1) The in vitro anticancer activity studies for these chalcone analogues were carried out at the National Cancer Institute, USA.
(§2) The chalcone compounds have been tested at NCI, USA, against sixty human tumor cell lines derived from nine cancer types (leukemia, non-small cell lung cancer, colon cancer, CNS cancer, melanoma cancer, ovarian cancer, renal cancer, prostate cancer and breast cancer). For these compounds results are expressed as growth inhibition (GI50) values as per NCI protocol.
(§3) We describe here the development and implementation of a pilot-scale, in vitro, anticancer drug screen utilizing a panel of 60 human tumor cell lines organized into subpanels representing leukemia, melanoma, and cancers of the lung, colon, kidney, ovary, and central nervous system. The ultimate goal of this disease-oriented screen is to facilitate the discovery of new compounds with potential cell line-specific and/or subpanel-specific antitumor activity. In the current screening protocol, each cell line is inoculated onto microtiter plates, then preincubated for 28 hours. Subsequently, test agents are added in five 10-fold dilutions and the culture is incubated for an additional 48 hours. For each test agent, a dose-response profile is generated. End-point determinations of the cell viability or cell growth are performed by in situ fixation of cells, followed by staining with a protein-binding dye, sulforhodamine B (SRB). The SRB binds to the basic amino acids of cellular macromolecules; the solubilized stain is measured spectrophotometrically to determine relative cell growth or viability in treated and untreated cells.

786-0 = assay: NCI 60 human tumor cell line screen (SRB): 786-0; settings: 786-0, Renal, 48 hours, read-out: GI50 values (μM conc.)
Protocol: as §1, §2, §3

NCI-H522 = assay: NCI 60 human tumor cell line screen (SRB): NCI-H522; settings: NCI-H522, Non-small cell lung, 48 hours, read-out: GI50 values (μM conc.)
Protocol: as §1, §2, §3

HOP-62 = assay: NCI 60 human tumor cell line screen (SRB): HOP-62; settings: HOP-62, Non-small cell lung, 48 hours, read-out: GI50 values (μM conc.)
Protocol: as §1, §2, §3

UO-31 = assay: NCI 60 human tumor cell line screen (SRB): UO-31; settings: UO-31, Renal, 48 hours, read-out: GI50 values (μM conc.)
Protocol: as §1, §2, §3

UACC-257 = assay: NCI 60 human tumor cell line screen (SRB): UACC-257; settings: UACC-257, Melanoma, 48 hours, read-out: GI50 values (μM conc.)
Protocol: as §1, §2, §3

SF-295 = assay: NCI 60 human tumor cell line screen (SRB): SF-295; settings: SF-295, CNS, 48 hours, read-out: GI50 values (μM conc.)
Protocol: as §1, §2, §3

OVCAR-4 = assay: NCI 60 human tumor cell line screen (SRB): OVCAR-4; settings: OVCAR-4, Ovarian, 48 hours, read-out: GI50 values (μM conc.)
Protocol: as §1, §2, §3

T-47D = assay: NCI 60 human tumor cell line screen (SRB): T-47D; settings: T47D, Breast, 48 hours, read-out: GI50 values (μM conc.)
Protocol: as §1, §2, §3

ACHN = assay: NCI 60 human tumor cell line screen (SRB): ACHN; settings: Renal, 48 hours, read-out: GI50 values (μM conc.)
Protocol: as §1, §2, §3

CAKI-1 = assay: NCI 60 human tumor cell line screen (SRB): CAKI-1; settings: CAKI-1, Renal, 48 hours, read-out: GI50 values (μM conc.)
Protocol: as §1, §2, §3

M14 = assay: NCI 60 human tumor cell line screen (SRB): M14; settings: M14, Melanoma, 48 hours, read-out: GI50 values (μM conc.)
Protocol: as §1, §2, §3

HT29 = assay: NCI 60 human tumor cell line screen (SRB): HT29; settings: HT-29, HT29, Colon, 48 hours, read-out: GI50 values (μM conc.)
Protocol: as §1, §2, §3

U251 = assay: NCI 60 human tumor cell line screen (SRB): U251; settings: U-251, U251, CNS, 48 hours, read-out: GI50 values (μM conc.)
Protocol: as §1, §2, §3

SF-539 = assay: NCI 60 human tumor cell line screen (SRB): SF-539; settings: SF-539, CNS, 48 hours, read-out: GI50 values (μM conc.)
Protocol: as §1, §2, §3

OVCAR-3 = assay: NCI 60 human tumor cell line screen (SRB): OVCAR-3; settings: OVCAR-3, Ovarian, 48 hours, read-out: GI50 values (μM conc.)
Protocol: as §1, §2, §3

SK-MEL-2 = assay: NCI 60 human tumor cell line screen (SRB): SK-MEL-2; settings: SK-MEL-2, Melanoma, 48 hours, read-out: GI50 values (μM conc.)
Protocol: as §1, §2, §3

NCI-H226 = assay: NCI 60 human tumor cell line screen (SRB): NCI-H226; settings: NCI-H226, Non-small cell lung, 48 hours, read-out: GI50 values (μM conc.)
Protocol: as §1, §2, §3

BT-549 = assay: NCI 60 human tumor cell line screen (SRB): BT-549; settings: BT-549, Breast, 48 hours, read-out: GI50 values (μM conc.)
Protocol: as §1, §2, §3

HCC-2998 = assay: NCI 60 human tumor cell line screen (SRB): HCC-2998; settings: HCC-2998, Colon, 48 hours, read-out: GI50 values (μM conc.)
Protocol: as §1, §2, §3

HS 578T = assay: NCI 60 human tumor cell line screen (SRB): HS 578T; settings: Breast, 48 hours, read-out: GI50 values (μM conc.)
Protocol: as §1, §2, §3

KM12 = assay: NCI 60 human tumor cell line screen (SRB): KM12; settings: KM12, Colon, 48 hours, read-out: GI50 values (μM conc.)
Protocol: as §1, §2, §3

SK-MEL-5 = assay: NCI 60 human tumor cell line screen (SRB): SK-MEL-5; settings: SK-MEL-5, Melanoma, 48 hours, read-out: GI50 values (μM conc.)
Protocol: as §1, §2, §3

MOLT-4 = assay: NCI 60 human tumor cell line screen (SRB): MOLT-4; settings: MOLT-4, Leukemia, 48 hours, read-out: GI50 values (μM conc.)
Protocol: as §1, §2, §3

NCI-H460 = assay: NCI 60 human tumor cell line screen (SRB): NCI-H460; settings: NCI-H460, Non-small cell lung, 48 hours, read-out: GI50 values (μM conc.)
Protocol: as §1, §2, §3

OVCAR-5 = assay: NCI 60 human tumor cell line screen (SRB): OVCAR-5; settings: OVCAR-5, Ovarian, 48 hours, read-out: GI50 values (μM conc.)
Protocol: as §1, §2, §3

MALME-3M = assay: NCI 60 human tumor cell line screen (SRB): MALME-3M; settings: Melanoma, 48 hours, read-out: GI50 values (μM conc.)
Protocol: as §1, §2, §3

TK-10 = assay: NCI 60 human tumor cell line screen (SRB): TK-10; settings: TK-10, Renal, 48 hours, read-out: GI50 values (μM conc.)
Protocol: as §1, §2, §3

[1] = MCF7, Breast, 48 hours, SRB, read-out: GI50 values (μM conc.)
[2] = MCF7, comparison table, read-out: GI50 μM in MCF7

Compound | GI50 (MCF7; [1]) [µM] | GI50 (MCF7; [2]) [µM] | GI50 (786-0) [µM] | GI50 (NCI-H522) [µM] | GI50 (HOP-62) [µM] | GI50 (UO-31) [µM] | GI50 (UACC-257) [µM] | GI50 (SF-295) [µM] | GI50 (OVCAR-4) [µM] | GI50 (T-47D) [µM] | GI50 (ACHN) [µM] | GI50 (CAKI-1) [µM] | GI50 (M14) [µM] | GI50 (HT29) [µM] | GI50 (U251) [µM] | GI50 (SF-539) [µM] | GI50 (OVCAR-3) [µM] | GI50 (SK-MEL-2) [µM] | GI50 (NCI-H226) [µM] | GI50 (BT-549) [µM] | other results
COc1ccc(C(=O)/C=C/c2cccnc2Nc2cc(OC)c(OC)c(OC)c2)cc1 [6z, (E)-1-(4-Methoxyphenyl)-3-(2-(3,4,5-trimethoxyphenylamino)pyridin-3-yl)prop-2-en-1-one] | 0.18 | 0.18 | 1.31 | 1.33 | 2.18 | 1.44 | 3.63 | 2.91 | 1.78 | 2.04 | 1.7 | 2.26 | 2.55 | 0.37 | 1.27 | 1.81 | 0.48 | 7.04 | 1.73 | 2.41 | GI50 (HCC-2998): 1.42 µM; GI50 (HS 578T): 6.38 µM; GI50 (KM12): 0.46 µM; GI50 (SK-MEL-5): 2.41 µM; GI50 (MOLT-4): 2.26 µM; GI50 (NCI-H460): 2.16 µM; GI50 (OVCAR-5): 1.95 µM; GI50 (MALME-3M): 3.24 µM; GI50 (TK-10): 2.06 µM
COc1cc(C(=O)/C=C/c2cccnc2Nc2ccccc2)cc(OC)c1OC [6a, (E)-3-(2-(Phenylamino)pyridin-3-yl)-1-(3,4,5-trimethoxyphenyl)prop-2-en-1-one] | 0.35 | 0.35 | 1.29 | 0.49 | 0.65 | 1.19 | 1.51 | 1.87 | 1.45 | 1.43 | 1.28 | 1.16 | 1.5 | 0.51 | 1.12 | 1.65 | 0.42 | 1.66 | 1.23 | 1.26 | GI50 (HCC-2998): 1.18 µM; GI50 (HS 578T): 2.15 µM; GI50 (KM12): 0.92 µM; GI50 (SK-MEL-5): 1.34 µM; GI50 (MOLT-4): 2.68 µM; GI50 (NCI-H460): 1.8 µM; GI50 (OVCAR-5): 1.54 µM; GI50 (MALME-3M): 1.92 µM; GI50 (TK-10): 1.82 µM
COc1cc(/C=C/C(=O)c2cccnc2Nc2ccc(F)cc2)cc(OC)c1OC [7f, (E)-1-(2-(4-Fluorophenylamino)pyridin-3-yl)-3-(3,4,5-trimethoxyphenyl)prop-2-en-1-one] | 2.44 | 2.44 | 3.9 | 2.69 | 2.9 | 5.62 | 2.9 | 4.16 | 3.81 | 3.06 | 2.84 | 3.68 | 3.19 | 2.75 | 2.78 | 2.85 | 2.63 | 2.52 | 1.79 | 2.7 | GI50 (HCC-2998): 1.78 µM; GI50 (HS 578T): 3.68 µM; GI50 (KM12): 3.72 µM; GI50 (SK-MEL-5): 2.51 µM; GI50 (MOLT-4): 2.75 µM; GI50 (NCI-H460): 2.83 µM; GI50 (OVCAR-5): 4.1 µM; GI50 (MALME-3M): 6.9 µM; GI50 (TK-10): 3.52 µM
